B1: FGF-2: fibroblast growth factor (protein, UniProt P15655 10-154, looked up)
Fibroblast growth factor 2: PALPEDGGAAFPPGHFKDPKRLYCKNGGFFLRIHPDGRVDGVREKSDPHVKLQLQAEERGVVSIKGVCANRYLAMKEDGRLLASKCVTEECFFFERLESNNYNTYRSRKYSSWYVALKRTGQYKLGSKTGPGQKAILFLPMSAKS

Experiments:
[1] = tested on: 355 B-cell lymphoma cell line; test: 355 B-cell lymphoma survival model; type: in vivo; details: 0.1 mg/mouse i.p. on day 0, 2, 4, 8, 12, 16, 20, 24, and 28
Experimental: FIG. 4. is a graph showing that lymphoma stromal cells (LSCs) promote lymphoma development in a NO-dependent manner. 355 B-cell lymphoma cell line (C3H-gld/gld background, 0.5×10^6 cells/mouse) was co-injected with gld/gld mice-derived lymphoma stromal cells (C3H background, P5, 0.25×10^6 cells/mouse) by tail-vein i.v. on day 0.1400 W (NOS inhibitor, 0.1 mg/mouse) was injected on day 0, 2, 4, 8, 12, 16, 20, 24, and 28 by i.p. Mice survival was recorded when mice were moribund.
To examine the effect of lymphoma stromal cells on tumor growth, 355 B-cell lymphoma cell line (C3H-gld/gld background, 0.5×10^6 cells/mouse) was co-injected with gld/gld mice-derived lymphoma stromal cells (C3H background, P5, 0.25×10^6 cells/mouse).

splenocytes = test: Anti-CD3-activated splenocyte proliferation in co-culture with MSCs; type: cell-based, mouse
Experimental: FIGS. 9A, 9B, 9C, 9D, 9E, 9F and 9G. […] Cloned MSCs were first treated with the indicated combinations of recombinant cytokines IFNγ, TNFα, IL-17A (2 ng/ml each) for 12 hr, then cocultured with CD4^+ T cell blasts at a 1:20 ratio (MSC:T cells), and proliferation was assessed by 3H-thymidine incorporation after an additional 12 hr. (FIG. 9B). The mRNA expression of IL-17 receptor family members in MSCs or Raw 264.7 (Macrophages) were examined by RT-PCR. NC: No RT. (FIG. 9C). Surface expression of IL-17RA was detected by immunofluoresence or flow cytometry in cloned MSCs. (FIGS. 9D and 9E). MSCs were first treated with IFNγ and TNFα with or without IL-17A (10 ng/ml), IFNγ and TNFα were supplemented at different cytokine concentrations, for 12 hr, and then cocultured with CD4^+ T cell blasts (FIG. 9D) or T cell hybridoma A1.1 cells (FIG. 9E) at a ratio of 1:20 for 12 hr. T cell proliferation was measured by 3H-Tdr incorporation. (FIG. 9F). MSCs were first treated with IFNγ and TNFα (2 ng/ml) with graded concentrations of IL-17A, for 12 hr, and then cocultured with T cell hybridoma A1.1 cells at a ratio of 1:10 for 12 hr. T cell proliferation was measured by 3H-thymidine incorporation. (FIG. 9G). MSCs were cocultured with fresh C57BL/6 splenocytes plus anti-CD3, anti-CD28, and antibodies against IL-17A, at a 1:20 or 1:40 ratio (MSCs:splenocytes), for 48 hr, and then cell proliferation was assessed by 3H-thymidine incorporation. Proliferation values represent means±SEM of three wells from a representative of three experiments.
To examine the possibility that cytokines induce the immunosuppressive capacity of MSCs, these culture conditions were reproduced by combining MSCs and fresh splenocytes at graded ratios in the presence of anti-CD3. […] The immunosuppressive capacity of MSC clones generated from different mouse strains was also examined.
To identify the mechanism through which immunosuppression by cytokine-exposed MSCs is effected, the response of anti-CD3-activated splenocytes co-cultured with MSCs (1:20, MSC:splenocytes) in a […] system was examined in various configurations.
Nitric oxide (NO) at high concentrations is known to inhibit T cell responses. It diffuses quickly from its source, but the concentration of the active form drops off within about 100 μm.
Proliferation assay—To assay T cell proliferation, 0.5 μCi of 3H-thymidine was added to each well of 96-well plates 6 hr before termination of the cultures by freezing. Plates were then thawed, cells were harvested, and incorporated 3H-Tdr was assessed with a Wallac Microbeta scintillation counter (Perkin-Elmer, Waltham, MA).

iNOS = iNOS protein and NO production in MSCs with type I IFN or FGF-2; type: cell-based, mouse; details: induced by IFN γ+TNF α or IFN γ+IL-β
Description: FIGS. 17A, 17B, 17C and 17D. Type I interferons and FGF-2 down-regulate the immunosuppressive effect of MSCs through attenuation NO production. […] (FIG. 17C) FGF-2 (FGF B) inhibited the NO production which was induced by IFN γ+TNF α or IFN γ+IL-β in MSCs, reflected by nitrate content in the culture supernatants.

Molecule | effect on stromal cell-enhanced mortality [1] | splenocyte proliferation in MSC co-culture with iNOS inhibitor (splenocytes; MSCs + splenocytes + anti-CD3) | MSC-mediated immunosuppression in MSC+splenocyte+anti-CD3 system (splenocytes) | NO production in MSCs (nitrate content in culture supernatants) (iNOS)
CC(=N)NCc1cccc(CN)c1 [1400 W] | significantly reverted the effect | same effect | – | –
B1 | – | – | significantly reduced | inhibited

From patent US12156889B2, “Methods of administering mesenchymal stem cells activated by cytokines for enhancing immunosuppression” (Rutgers, The State University of New Jersey, priority 2012, dated 2024)
